Test results: patent US11440923B2, “Substituted macrocyclic indole derivatives” (Bayer Aktiengesellschaft, priority 2017, dated 2022)

Key:
SNU-16 cells = assay: Antiproliferation assay SNU-16 (Assay 7); type: cell-based; conditions: Homo sapiens, SNU-16, 72 h, read-out: Antiproli SNU-16 IC50 median
How it was run: (§1)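 Cells were plated overnight at 37° C, then compound-treated for 72 h. Viability was measured by CellTiter-Glo luminescence.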

A-431 cells = assay: Antiproliferation assay A-431 (Assay 7); type: cell-based; conditions: Homo sapiens, A-431, 72 h, read-out: Antiproli A-431 IC50 median
How it was run: as §1

PA-1 cells = assay: Antiproliferation assay PA-1 (Assay 7); type: cell-based; conditions: Homo sapiens, PA-1, 72 h, read-out: Antiproli PA-1 IC50 median
How it was run: as §1

DMS-114 cells = assay: Antiproliferation assay DMS-114 (Assay 7); type: cell-based; conditions: Homo sapiens, DMS-114, 72 h, read-out: Antiproli DM-S114 IC50 median
How it was run: as §1

SK-BR-3 cells = assay: Antiproliferation assay SK-BR-3 (Assay 7); type: cell-based; conditions: Homo sapiens, SK-BR-3, 72 h, read-out: Antiproli SK-BR-3 IC50 median
Method: Assessment of the Anti-Proliferative Effect of Compounds in Different Cell Lines
The impact of compounds on the proliferation of different cell lines was assessed using the CellTiter-Glo® Luminescent Cell Viability reagent from Promega (G7573).
In parallel, cells were plated in a reference (day 0) plate for time zero determination. Cells were incubated in a humidified incubator at 37° C. overnight.
Rim wells were excluded. The cells were incubated for 72 h hours in a humidified incubator at 37° C. The day 0 plate was measured by adding 30 μL/well of CTG solution (CellTiter-Glo® Luminescent Cell Viability reagent, Promega G7573) to time zero wells in the reference plate followed by a 10 minutes incubation and luminescence reading at 0.1 ms. using the PHERAstar FS microplate reader (BMG Labtech).
After 72 h incubation, the treated plates were measured in the same way as the day 0 plate mentioned above. The Bella DRC Master Sheet was used to calculate IC50s, with CI=day 0 values and C0=DMSO control values.

SK-MEL-2 cells = assay: Antiproliferation assay SK-MEL-2 (Assay 7); type: cell-based; conditions: Homo sapiens, SK-MEL-2, 72 h, read-out: Antiproli SK-MEL-2 IC50 median
How it was run: as §1

MCL-1 = MCL-1 (Homo sapiens (Human), UniProt Q07820, K194A/K197A/R201A); assay: Protein-compound interaction assay (SPR assay, Assay 9); type: binding
MCL-1, sequence (Q07820 whole entry K194A/K197A/R201A, looked up): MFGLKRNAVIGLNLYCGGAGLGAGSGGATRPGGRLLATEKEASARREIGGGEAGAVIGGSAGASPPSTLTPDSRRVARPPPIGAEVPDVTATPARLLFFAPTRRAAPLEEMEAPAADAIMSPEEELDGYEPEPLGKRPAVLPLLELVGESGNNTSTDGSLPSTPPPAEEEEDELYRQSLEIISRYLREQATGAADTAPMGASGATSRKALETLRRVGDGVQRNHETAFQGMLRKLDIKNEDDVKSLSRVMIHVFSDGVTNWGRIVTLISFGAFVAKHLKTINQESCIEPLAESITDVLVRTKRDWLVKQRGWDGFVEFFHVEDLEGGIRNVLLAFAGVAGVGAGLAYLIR
Excerpt: Assay 9 Protein-Compound Interaction Assay (SPR Assay)
The ability of the compounds described in this invention to bind to MCL-1 may be determined using surface plasmon resonance (SPR). This allows for the quantification of binding in terms of the equilibrium dissociation constant (KD [M]), as well as association and dissociation rate constants (kon [1/Ms] and koff [1/s], respectively). The measurements may be performed using Biacore® T200 or Biacore® S200 instruments (GE Healthcare).
Briefly, carboxymethylated dextran biosensor chips (Series S Sensor Chip CMS, GE Healthcare) were activated with 1-ethyl-3-(3-dimethylaminopropyl)-carbodiimide hydrochloride (EDC) and N-hydroxysuccinimide (NHS) according to the supplier's instructions. MBP-MCL-1 was diluted in 1×PBS-P+ (GE Healthcare) and injected on the activated chip surface. Subsequently, a solution of 1 M ethanolamine-HCl (GE Healthcare) was injected to block unreacted groups, resulting in approximately 400-2500 response units (RU) of immobilized protein. A reference surface was generated by treatment with NHS-EDC and ethanolamine-HCl. […] Compounds were injected for 60 s followed by a dissociation time of up to 1000 s.
The double-referenced sensorgrams were fit to a simple reversible Langmuir 1:1 reaction mechanism as implemented in the Biacore® T200 and S200 evaluation software (T200 evaluation software version 2.0 and S200 evaluation software version 1.0, GE Healthcare).

SNU-389 cells = assay: Antiproliferation assay SNU-389 (Assay 7); type: cell-based; conditions: 72 h, read-out: Antiproli SNU-389 IC50
How it was run: as §1

Work on Cc1c2c(nn1C)C(CCN1CCOCC1)OCCCCn1c(C(=O)O)c(CCCOc3cccc4cc(F)ccc34)c3ccc(F)c-2c31 (single isomer, unassigned; enantiomer 1) [Example 20, 4-fluoro-7-{3-[(6-fluoronaphthalen-1-yl)oxy]propyl}-2,3-dimethyl-15-[2-(morpholin-4-yl)ethyl]-2,10,11,12,13,15-hexahydropyrazolo[4′,3′:9,10][1,6]oxazacycloundecino[8,7,6-hi]indole-8-carboxylic Acid—N-ethylethanamine (Enantiomer 1)] yielded an IC50 (SNU-16 cells) of 397 nM, an IC50 (A-431 cells) of 462 nM and an IC50 (PA-1 cells) of 304 nM. For the same compound, the IC50 (DMS-114 cells) was 222 nM, the IC50 (SK-BR-3 cells) was 173 nM and the IC50 (SK-MEL-2 cells) was 607 nM. The Kd (MCL-1; KD (geometric mean), SPR, 25° C.) was 0.56 nM, the koff (MCL-1; read-out: koff (geometric mean), SPR, 25° C.) was 0.018 s⁻¹ and the kon (MCL-1; read-out: kon (geometric mean), SPR, 25° C.) was 3.2e+07 M⁻¹ s⁻¹. The IC50 (SNU-389 cells) was 437 nM.
